In US12440496B2, “Natriuretic peptide receptor a agonists useful for the treatment of cardiometabolic diseases, kidney disease and diabetes” (Merck Sharp & Dohme LLC, priority 2019, dated 2025):
Counter-ions that a name gives are not always drawn.

Molecular target: T1, hNPRA (Homo sapiens, UniProt P16066)
T1 construct: expressed in transfected cells
T1 sequence (P16066 33-1061): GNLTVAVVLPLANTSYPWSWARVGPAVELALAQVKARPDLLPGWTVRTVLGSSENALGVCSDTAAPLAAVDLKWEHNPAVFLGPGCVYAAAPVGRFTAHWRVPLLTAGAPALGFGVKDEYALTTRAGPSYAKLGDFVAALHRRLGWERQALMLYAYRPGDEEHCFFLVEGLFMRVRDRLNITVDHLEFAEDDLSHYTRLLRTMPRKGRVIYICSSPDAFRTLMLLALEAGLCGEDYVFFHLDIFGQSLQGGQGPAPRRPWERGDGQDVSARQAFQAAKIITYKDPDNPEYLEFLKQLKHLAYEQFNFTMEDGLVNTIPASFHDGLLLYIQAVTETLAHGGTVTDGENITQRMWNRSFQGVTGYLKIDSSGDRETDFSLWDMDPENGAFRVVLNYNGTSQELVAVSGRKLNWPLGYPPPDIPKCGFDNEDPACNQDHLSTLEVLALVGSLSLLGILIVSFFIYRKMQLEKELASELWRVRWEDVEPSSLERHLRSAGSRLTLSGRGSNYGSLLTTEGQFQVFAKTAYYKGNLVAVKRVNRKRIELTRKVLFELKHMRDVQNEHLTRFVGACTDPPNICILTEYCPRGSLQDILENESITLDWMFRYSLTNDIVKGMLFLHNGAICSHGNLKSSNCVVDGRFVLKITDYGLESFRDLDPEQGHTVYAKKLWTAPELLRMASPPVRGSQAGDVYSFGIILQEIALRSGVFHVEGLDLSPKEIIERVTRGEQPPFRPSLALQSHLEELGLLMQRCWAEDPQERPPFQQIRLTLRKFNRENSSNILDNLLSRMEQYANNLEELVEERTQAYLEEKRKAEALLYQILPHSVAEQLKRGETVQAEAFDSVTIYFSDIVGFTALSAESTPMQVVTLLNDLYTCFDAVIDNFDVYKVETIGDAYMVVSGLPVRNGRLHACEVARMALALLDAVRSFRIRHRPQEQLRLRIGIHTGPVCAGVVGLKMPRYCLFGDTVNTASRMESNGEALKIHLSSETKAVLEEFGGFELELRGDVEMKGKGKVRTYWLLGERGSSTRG
Assay: NPRA Functional Cell Assay (cGMP HTRF, NPRA HEK JumpIn stable cells)
Format: cell-based
Conditions: cGMP production, 1 hour at 37° C., 10-point dose response
Outline: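 cGMP HTRF read-out after 1 hour compound treatment at 37° C. of human NPRA-expressing HEK JumpIn cells, 1500 cells/well, in buffer with phosphodiesterase inhibitors IBMX and RO20 (100 uM each). Signal converted to [cGMP] by calibration curve; EC50s fitted by 4-parameter logistic; 50 nM h-ANP as positive response.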

EC50 [nM]	Structure (SMILES)
1610	CC(C)(C)[C@H]1CCc2nc3sc(C(=O)N[C@H](CCN4CCC(O)CC4)c4ccc(-c5cc(=O)[nH]c(=O)[nH]5)cc4)nc3cc2C1 (racemic) [Example 182, rac-(7S)-7-tert-butyl-N-[rac-(1R)-1-[4-(2,4-dioxo-1H-pyrimidin-6-yl)phenyl]-3-(4-hydroxy-1-piperidyl)propyl]-5,6,7,8-tetrahydrothiazolo[5,4-b]quinoline-2-carboxamide]
811	CC(C)(C)[C@H]1CCc2nc3sc(C(=O)N[C@H](CCN4CCCC(C(=O)O)C4)c4ccc(-c5ccc(=O)[nH]c5)cc4)cc3cc2C1 (mixture of isomers) [Example 56, 1-[rac-(3R)-3-[4-(6-oxo-1H-pyridin-3-yl)phenyl]-3-[[rac-(6S)-6-tert-butyl-5,6,7,8-tetrahydrothieno[2,3-b]quinoline-2-carbonyl]amino]propyl]piper idin-1-ium-3-carboxylic acid;formate]
210	CN1CC[C@H](NC(=O)c2cccc([C@@H](CCN3CCC(O)CC3)NC(=O)c3nc4cc5c(nc4s3)CC[C@H](C(C)(C)C)C5)c2)C1 (racemic) [Example 138, rac-(7S)-7-tert-butyl-N-[rac-(1R)-3-(4-hydroxy-1-piperidyl)-1-[3-[[rac-(3S)-1-methylpyrrolidin-3-yl]carbamoyl]phenyl]propyl]-5,6,7,8-tetrahydrothiazolo[5,4-b]quinoline-2-carboxamide]
1190	CC(C)(C)[C@H]1CCc2nc3sc(C(=O)N[C@H](CCN4CC[C@H](C(=O)O)[C@@H](F)C4)c4ccc(-c5cnc(O)c(F)c5)cc4)nc3cc2C1 (racemic) [Example 203, rac-(3R,4R)-3-fluoro-1-[rac-(3R)-3-[4-(5-fluoro-6-hydroxy-3-pyridyl)phenyl]-3-[[rac-(7S)-7-tert-butyl-5,6,7,8-tetrahydrothiazolo[5,4-b]quinoline-2-carbonyl]amino]propyl]piperidin-1-ium-4-carboxylic acid; formate]
3100	CC(C)(C)[C@H]1CCc2nc3sc(C(=O)N[C@H](CCN4CC(O)C4)c4ccccc4)cc3cc2C1 [Example 256, (6S)-6-tert-butyl-N-[(1R)-3-(3-hydroxyazetidin-1-yl)-1-phenylpropyl]-5,6,7,8-tetrahydrothieno[2,3-b]quinoline-2-carboxamide]
682	CC(C)(C)[C@H]1CCc2nc3sc(C(=O)N[C@H](CCN4CCC(O)CC4)c4cccc(C(=O)NCCO)c4)nc3cc2C1 (racemic) [Example 151, rac-(7S)-7-tert-butyl-N-[rac-(1R)-1-[3-(2-hydroxyethylcarbamoyl)phenyl]-3-(4-hydroxy-1-piperidyl)propyl]-5,6,7,8-tetrahydrothiazolo[5,4-b]quinoline-2-carboxamide]
792	CC(C)(C)[C@H]1CCc2nc3sc(C(=O)N[C@H](CCN4CCCC(O)C4)c4ccc(-c5ccc(=O)[nH]c5)cc4)cc3cc2C1 (mixture of isomers) [Example 55, rac-(6S)-6-tert-butyl-N-[rac-(1R)-3-(3-hydroxypiperidin-1-ium-1-yl)-1-[4-(6-oxo-1H-pyridin-3-yl)phenyl]propyl]-5,6,7,8-tetrahydrothieno[2,3-b]quinoline-2-carboxamide;formate]
276	CC(C)(C)[C@H]1CCc2nc3sc(C(=O)N[C@H](CCN4CCC(O)CC4)c4cccc(C(=O)NC5CCCNC5)c4)nc3cc2C1 (mixture of isomers) [Example 143, rac-(7S)-7-tert-butyl-N-[rac-(1R)-3-(4-hydroxy-1-piperidyl)-1-[3-(3-piperidylcarbamoyl)phenyl]propyl]-5,6,7,8-tetrahydrothiazolo[5,4-b]quinoline-2-carboxamide]
126	CC(C)(C)[C@H]1CCc2nc3sc(C(=O)N[C@H](CCN4CCC(O)CC4)c4ccc(-c5ccc(=O)[nH]c5)nc4)nc3cc2C1 (racemic) [Example 195, rac-(7S)-7-tert-butyl-N-[rac-(1R)-3-(4-hydroxy-1-piperidyl)-1-[6-(6-oxo-1H-pyridin-3-yl)-3-pyridyl]propyl]-5,6,7,8-tetrahydrothiazolo[5,4-b]quinoline-2-carboxamide]
1950	CC(C)(C)[C@H]1CCc2nc3sc(C(=O)N[C@H](CCN4CCC(O)CC4)c4cccc(C(=O)N5CCO[C@H]6CNC[C@H]65)c4)nc3cc2C1 (racemic) [Example 161, rac-(7S)-7-tert-butyl-N-[rac-(1R)-3-(4-hydroxy-1-piperidyl)-1-[3-[rac-(4aR,7aS)-3,4a,5,6,7,7a-hexahydro-2H-pyrrolo[3,4-b][1,4]oxazine-4-carbonyl]phenyl]propyl]-5,6,7,8-tetrahydrothiazolo[5,4-b]quinoline-2-carboxamide]
1100	CC(C)(C)[C@@H]1CCc2nc3sc(C(=O)N[C@H](CCN4CCC(c5nn[nH]n5)CC4)c4ccc(-c5cnc(O)c(F)c5)cc4)nc3cc2C1 [Example 271, (R)-N-((R)-3-(4-(2H-tetrazol-5-yl)piperidin-1-yl)-1-(4-(5-fluoro-6-hydroxypyridin-3-yl)phenyl)propyl)-7-(tert-butyl)-5,6,7,8-tetrahydrothiazolo[5,4-b]quinoline-2-carboxamide]
243	CN(C)CC1(O)CCN(CC[C@@H](NC(=O)c2nc3cc4c(nc3s2)CC[C@H](C(C)(C)C)C4)c2ccc(-c3cnc(O)c(F)c3)cc2)CC1 (racemic) [Example 200, rac-(7S)-7-tert-butyl-N-[rac-(1R)-3-[4-[(dimethylamino)methyl]-4-hydroxy-piperidin-1-ium-1-yl]-1-[4-(5-fluoro-6-hydroxy-3-pyridyl)phenyl]propyl]-5,6,7,8-tetrahydrothiazolo[5,4-b]quinoline-2-carboxamide; formate]
453	CC(C)(C)[C@H]1CCc2nc3sc(C(=O)N[C@H](CCN4CCC(O)CC4)c4cccc(NS(C)(=O)=O)c4)cc3cc2C1 (racemic) [Example 8, ammonium; methylsulfonyl-[3-[rac-(1R)-3-(4-hydroxy-1-piperidyl)-1-[rac-(6S)-6-tert-butyl-5,6,7,8-tetrahydrothieno[2,3-b]quinoline-2-carbonyl]amino]propyl]phenyl] azanide]
518	CC(C)(C)[C@H]1CCc2nc3sc(C(=O)N[C@H](CCN4CCCCC4)c4ccc(-c5cnc(=O)[nH]c5)cc4)cc3cc2C1 (racemic) [Example 2, rac-(6S)-6-tert-butyl-N-[rac-(1R)-1-[4-(2-oxo-1H-pyrimidin-5-yl)phenyl]-3-(1-piperidyl)propyl]-5,6,7,8-tetrahydrothieno[2,3-b]quinoline-2-carboxamide]
207	CN(C)CC[C@@H](NC(=O)c1nc2cc3c(nc2s1)CC[C@H](C(C)(C)C)C3)c1cccc(C(=O)N[C@H]2CCN(C)C2)c1 (racemic) [Example 87, rac-(7S)-7-tert-butyl-N-[rac-(1R)-3-(dimethyl-amino)-1-[3-[rac-(3S)-1-methylpyrrolidin-3-yl]carbamoyl]phenyl]propyl]-5,6,7,8-tetrahydrothiazolo[5,4-b] quinoline-2-carboxamide]
671	COC(=O)C1CCN(CC[C@@H](NC(=O)c2nc3cc4c(nc3s2)CC[C@H](C(C)(C)C)C4)c2cccc(C(=O)NC3CN(C)C3)c2)CC1 (racemic) [Example 114, methyl 1-[rac-(3R)-3-[3-[(1-methylazetidin-1-ium-3-yl)carbamoyl]phenyl]-3-[[rac-(7S)-7-tert-butyl-5,6,7,8-tetrahydrothiazolo[5,4-b]quinoline-2-carbonyl]amino]propyl] piperidine-4-carboxylate; 2,2,2-trifluoroacetate]
